The source made the active and inactive calls.
Experiments:
[1] = target: T1, Beta-2 adrenergic receptor (Homo sapiens, UniProt P07550); assay: Dose response for HTS for Beta-2AR agonists via FAP method from Powderset1.; type: functional
[2] = target: T1, Beta-2 adrenergic receptor; assay: beta2AR agonists driving receptor internalization, dose response, cell-based, FAP fluorogen, flow cytometry, cherry pick 1 (AID 588763); type: functional
[3] = Cytotoxicity Dose Response with AM2.2-beta2AR cells for PowderSet01.; type: functional, cell-based; conditions: read-out: EC50_MICROM
Estrogen receptor = target: T2, Estrogen receptor (Homo sapiens, UniProt P03372);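 note: potency for inhibiting coactivator peptide recruitment to the receptor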
T2 sequence (P03372 whole entry): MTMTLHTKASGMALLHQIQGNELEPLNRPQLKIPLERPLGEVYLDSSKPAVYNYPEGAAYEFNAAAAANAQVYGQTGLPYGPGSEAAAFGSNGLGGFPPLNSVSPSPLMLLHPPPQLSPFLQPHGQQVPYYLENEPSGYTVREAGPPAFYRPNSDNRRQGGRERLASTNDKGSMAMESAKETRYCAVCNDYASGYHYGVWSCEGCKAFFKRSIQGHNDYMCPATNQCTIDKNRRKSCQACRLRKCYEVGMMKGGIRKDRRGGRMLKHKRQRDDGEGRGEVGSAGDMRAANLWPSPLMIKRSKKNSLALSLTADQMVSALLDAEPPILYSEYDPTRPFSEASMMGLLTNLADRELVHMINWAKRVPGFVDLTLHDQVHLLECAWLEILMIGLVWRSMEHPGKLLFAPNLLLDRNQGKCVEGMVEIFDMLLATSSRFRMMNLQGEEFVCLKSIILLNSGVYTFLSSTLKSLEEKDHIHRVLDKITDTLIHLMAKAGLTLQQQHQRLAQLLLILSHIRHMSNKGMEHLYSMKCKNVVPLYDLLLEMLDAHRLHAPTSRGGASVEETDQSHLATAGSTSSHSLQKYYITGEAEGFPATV

Estrogen receptor beta [4] = target: T3, Estrogen receptor beta (Homo sapiens, UniProt Q92731);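 note: recombinant ER-beta bound to coactivator SRC1 peptide in presence of estradiol agonist; inhibitors block coactivator peptide binding and lower the FRET signal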
Estrogen receptor beta [5] = target: T3, Estrogen receptor beta; assay: ERβ–SRC-3 coactivator interaction inhibitors, confirmation, orthogonal assay, biochemical, ELISA, streptavidin-HRP readout (AID 1060)
[6] = target: Induced myeloid leukemia cell differentiation protein Mcl-1 (Homo sapiens, UniProt Q07820); type: functional
[7] = target: T4, Sentrin-specific protease 8 (Homo sapiens, UniProt Q96LD8); type: functional;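 note: kinetic enzyme assay of SENP8 cleaving a Nedd8 protein substrate, dose-response confirmation of screening hits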
T4 sequence (Q96LD8 whole entry): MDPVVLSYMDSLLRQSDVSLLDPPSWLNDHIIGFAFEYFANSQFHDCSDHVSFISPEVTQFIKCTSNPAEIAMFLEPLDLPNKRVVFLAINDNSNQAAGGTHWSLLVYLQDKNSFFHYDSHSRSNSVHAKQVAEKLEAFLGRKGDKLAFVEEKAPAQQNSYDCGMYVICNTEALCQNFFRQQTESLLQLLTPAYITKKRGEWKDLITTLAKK

[8] = target: Transitional endoplasmic reticulum ATPase (Homo sapiens, UniProt P55072, C522A); assay: C522A mutant p97 ATPase inhibitors, dose response, counter-screen for p97 inhibitor project, biochemical, luminescence (AID 1544)
[9] = target: Transitional endoplasmic reticulum ATPase (Homo sapiens, UniProt P55072); assay: p97 ATPase inhibitors, dose response, biochemical (AID 1534)
[10] = Luminescence Cell-Based Dose Retest to Confirm Inhibitors of Cancer Stem Cells. [Related pubchem assays (depositor defined):AID2717, AID2721]; type: functional; conditions: Homo sapiens
[11] = target: T5, Sentrin-specific protease 1 (Homo sapiens, UniProt Q9P0U3); assay: potency of human SENP1 inhibitors, dose response, biochemical, kinetic FRET (AID 651697); type: functional; conditions: read-out: IC50_Mean
[12] = target: T5, Sentrin-specific protease 1; assay: Dose response confirmation of small molecule inhibitors of the catalytic domain of the SUMO protease, SENP1 in a FRET assay.; type: functional; conditions: read-out: IC50_Mean
[13] = target: T6, Corticotropin-releasing factor receptor 2/Corticotropin-releasing factor-binding protein (Homo sapiens, UniProt P24387+Q13324); assay: Dose Response confirmation of uHTS hits for small molecule antagonists of the CRF-binding protein and CRF-R2 receptor complex.; type: functional; conditions: read-out: IC50_Mean
T6 sequence (Q13324 whole entry): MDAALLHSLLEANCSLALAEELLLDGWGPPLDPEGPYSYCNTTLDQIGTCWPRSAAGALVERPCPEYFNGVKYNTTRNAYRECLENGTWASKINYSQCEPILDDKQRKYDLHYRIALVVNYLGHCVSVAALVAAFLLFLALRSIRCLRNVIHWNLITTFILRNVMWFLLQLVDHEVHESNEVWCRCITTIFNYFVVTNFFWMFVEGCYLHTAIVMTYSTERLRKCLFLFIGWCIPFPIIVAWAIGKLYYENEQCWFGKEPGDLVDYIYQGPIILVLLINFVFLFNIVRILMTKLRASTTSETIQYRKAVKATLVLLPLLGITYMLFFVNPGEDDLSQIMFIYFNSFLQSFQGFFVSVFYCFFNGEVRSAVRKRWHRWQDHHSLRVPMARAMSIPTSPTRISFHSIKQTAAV
T6 sequence (P24387 whole entry): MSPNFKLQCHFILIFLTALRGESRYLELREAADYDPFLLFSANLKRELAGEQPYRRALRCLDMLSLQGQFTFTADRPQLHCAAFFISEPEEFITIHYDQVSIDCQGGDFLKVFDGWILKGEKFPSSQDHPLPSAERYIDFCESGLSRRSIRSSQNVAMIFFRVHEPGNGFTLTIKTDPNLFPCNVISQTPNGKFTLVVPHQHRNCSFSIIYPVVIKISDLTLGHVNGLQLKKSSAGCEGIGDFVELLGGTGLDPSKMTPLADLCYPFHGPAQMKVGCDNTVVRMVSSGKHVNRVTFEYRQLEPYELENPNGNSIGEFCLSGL

[14] = target: T6, Corticotropin-releasing factor receptor 2/Corticotropin-releasing factor-binding protein; assay: activators of CRF receptor 2 with binding protein – uHTS hits, confirmation (AID 602473); type: functional; conditions: read-out: EC50_Mean
[15] = CRF-BP/CRF-R2 complex antagonists, dose response, cell-based, uHTS hits, 384-well (AID 651639); type: functional, Homo sapiens; conditions: read-out: IC50_Mean
[16] = tested on: Streptococcus sp. 'group A'; assay: growth inhibition of control SK(-) GAS strain, dose response, counter-screen for streptokinase expression inhibitor project, luminescence, kanamycin, BacTiterGlo, confirmation (AID 1900); type: functional, organism-based
Streptokinase A = target: T7, Streptokinase A (Streptococcus pyogenes serotype M1, UniProt P10520); assay: S. pyogenes streptokinase expression inhibitors, potency, dose response, plasminogen activation absorbance, OD405 (AID 1914); type: functional, Streptococcus pyogenes M1 GAS;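 note: secreted streptokinase activity via plasminogen activation per viability signal from cell pellet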
T7 sequence (P10520 whole entry): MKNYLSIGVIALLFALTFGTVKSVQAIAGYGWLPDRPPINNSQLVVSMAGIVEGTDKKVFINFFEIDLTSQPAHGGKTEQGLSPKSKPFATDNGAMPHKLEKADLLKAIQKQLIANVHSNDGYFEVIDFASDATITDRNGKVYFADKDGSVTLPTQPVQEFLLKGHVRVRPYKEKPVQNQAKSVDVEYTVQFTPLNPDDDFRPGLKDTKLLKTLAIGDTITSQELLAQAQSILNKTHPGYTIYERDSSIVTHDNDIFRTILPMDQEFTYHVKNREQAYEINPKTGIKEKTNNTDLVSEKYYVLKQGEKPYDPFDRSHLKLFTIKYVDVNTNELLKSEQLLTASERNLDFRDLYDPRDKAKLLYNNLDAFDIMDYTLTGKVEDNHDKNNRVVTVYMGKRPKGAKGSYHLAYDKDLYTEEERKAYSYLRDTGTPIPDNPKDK

Streptococcus = assay: Group A Streptococcus viability loss, dose response, counter-screen for streptokinase expression inhibitor project, luminescence, BacTiterGlo (AID 1915); type: functional, organism-based;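 note: potency for reduction of bacterial viability or growth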
Cytochrome P450 2C19 = Cytochrome P450 2C19 (Homo sapiens, UniProt P33261); assay: Cytochrome panel assay with activity outcomes. Panel member name: p450-cyp2c19 Compounds with AC50 equal or less than 10 uM are considered active; type: functional; conditions: read-out: AC50
[17] = target: Potassium voltage-gated channel subfamily KQT member 2 (Rattus norvegicus, UniProt O88943); assay: KCNQ2 potassium channel inhibitors, dose response, cell-based, automated electrophysiology, set II, rat KCNQ2 (AID 588637); type: functional
Cytochrome P450 1A2 = target: T8, Cytochrome P450 1A2 (Homo sapiens, UniProt P05177);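 note: PubChem cytochrome P450 panel assay, CYP1A2 panel member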
T8 sequence (P05177 whole entry): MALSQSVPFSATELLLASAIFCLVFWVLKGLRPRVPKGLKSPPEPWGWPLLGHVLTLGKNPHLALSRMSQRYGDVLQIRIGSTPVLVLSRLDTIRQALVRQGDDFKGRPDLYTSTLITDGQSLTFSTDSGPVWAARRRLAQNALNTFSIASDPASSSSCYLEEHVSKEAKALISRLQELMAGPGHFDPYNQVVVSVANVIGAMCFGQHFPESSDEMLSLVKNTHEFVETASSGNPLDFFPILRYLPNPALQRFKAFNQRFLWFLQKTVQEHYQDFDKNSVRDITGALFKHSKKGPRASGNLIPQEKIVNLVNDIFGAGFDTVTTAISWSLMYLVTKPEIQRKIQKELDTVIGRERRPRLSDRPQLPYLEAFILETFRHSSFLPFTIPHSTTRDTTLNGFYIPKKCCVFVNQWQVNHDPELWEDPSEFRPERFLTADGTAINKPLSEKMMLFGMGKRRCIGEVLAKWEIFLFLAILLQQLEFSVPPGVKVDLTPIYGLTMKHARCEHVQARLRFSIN

Cytochrome P450 2C9 = Cytochrome P450 2C9 (Homo sapiens, UniProt P11712)
[18] = target: T9, Methionyl-tRNA synthetase, putative (Trypanosoma brucei brucei, UniProt Q38C91); type: functional, Trypanosoma brucei brucei strain 927/4 GUTat10.1
[19] = Counterscreen for inhibitors of Trypanosoma brucei methionyl tRNA synthetase (MetRS): Luminescence-based cell-based high throughput dose response assay to identify compounds that are cytotoxic to Jurkat human T lymphocyte cells.; type: functional
[20] = target: T9, Methionyl-tRNA synthetase, putative; type: functional, Trypanosoma brucei brucei strain 927/4 GUTat10.1; remark: listed apart in the source
[21] = target: Long-chain-fatty-acid--AMP ligase FadD28 (Mycobacterium tuberculosis, UniProt P9WQ59); assay: Fluorescence polarization aasay to screen for inhibitors that compete for the binding of FadD28 to a bisubstrate Measured in Biochemical System Using Plate Reader - 2147-01_Inhibitor_Dose_CherryPick_Activity.; type: functional, Mycobacterium tuberculosis H37Rv
Beta-lactamase [22] = target: Beta-lactamase (Salmonella choleraesuis (strain SC-B67), UniProt Q5J463); assay: Epi-absorbance-based counterscreen for selective VIM-2 inhibitors: dose response biochemical high throughput screening assay to identify inhibitors of TEM-1 serine-beta-lactamase.
Beta-lactamase [23] = target: T10, Beta-lactamase (Pseudomonas aeruginosa, UniProt Q79MP6); assay: IMP-1 metallo-beta-lactamase inhibitors, dose response, selectivity assay for VIM-2 inhibitor project, biochemical, epi-absorbance (AID 1920)
Beta-lactamase [24] = target: T10, Beta-lactamase; assay: […] counterscreen for selective VIM-2 inhibitors: dose response biochemical high throughput screening assay to identify inhibitors of IMP-1 metallo-beta-lactamase.
[25] = target: ADP-ribosylation factor GTPase-activating protein 1 (Rattus norvegicus, UniProt Q62848); assay: Fluorescence polarization-based biochemical high throughput dose response screening assay to identify inhibitors of ADP-ribosylation factor GTPase activating protein 1 (ARFGAP1).; type: functional
Vero = assay: Vero cell toxicity, dose response, cytotoxicity control, plate reader, cherry-pick samples (AID 687020); type: functional, cell-based; conditions: Chlorocebus sabaeus
INS1 = assay: beta cell apoptosis inhibitors, cytokine rescue, dose response, luminescence, retest (AID 449756); type: functional, cell-based; conditions: Rattus norvegicus;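 note: cell death triggered by IL-1 beta plus TNF-alpha plus IFN-gamma mixture; protective hits raise ATP signal compared with cytokine alone wells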
Protein Wnt-3a = Protein Wnt-3a (Mus musculus, UniProt P27467); assay: Wnt3a-driven reporter signaling inhibition, dose response, selectivity assay for Gli-SUFU antagonist project, Wnt-LIGHT cells, luminescence (AID 651570); type: functional; conditions: read-out: IC50_Mean;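 note: Wnt-LIGHT reporter cells stimulated with conditioned medium from Wnt3a-producing cells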
Cytochrome P450 2D6 = Cytochrome P450 2D6 (Homo sapiens, UniProt P10635);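 note: CYP2D6 member of a cytochrome P450 panel assay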
Cytochrome P450 2D6, sequence (P10635 whole entry): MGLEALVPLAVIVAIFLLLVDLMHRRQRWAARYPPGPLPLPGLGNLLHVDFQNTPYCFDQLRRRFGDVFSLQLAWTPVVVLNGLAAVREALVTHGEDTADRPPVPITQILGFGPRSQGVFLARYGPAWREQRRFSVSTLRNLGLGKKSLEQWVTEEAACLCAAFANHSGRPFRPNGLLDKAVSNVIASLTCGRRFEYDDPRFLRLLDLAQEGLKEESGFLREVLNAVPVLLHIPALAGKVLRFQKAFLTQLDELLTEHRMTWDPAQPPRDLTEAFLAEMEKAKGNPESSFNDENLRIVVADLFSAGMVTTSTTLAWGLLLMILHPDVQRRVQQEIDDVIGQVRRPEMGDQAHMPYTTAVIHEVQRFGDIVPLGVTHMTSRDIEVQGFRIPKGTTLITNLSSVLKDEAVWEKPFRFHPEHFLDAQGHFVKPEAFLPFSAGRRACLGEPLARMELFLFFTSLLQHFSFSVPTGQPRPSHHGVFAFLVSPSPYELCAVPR

T9 sequence (Q38C91 whole entry): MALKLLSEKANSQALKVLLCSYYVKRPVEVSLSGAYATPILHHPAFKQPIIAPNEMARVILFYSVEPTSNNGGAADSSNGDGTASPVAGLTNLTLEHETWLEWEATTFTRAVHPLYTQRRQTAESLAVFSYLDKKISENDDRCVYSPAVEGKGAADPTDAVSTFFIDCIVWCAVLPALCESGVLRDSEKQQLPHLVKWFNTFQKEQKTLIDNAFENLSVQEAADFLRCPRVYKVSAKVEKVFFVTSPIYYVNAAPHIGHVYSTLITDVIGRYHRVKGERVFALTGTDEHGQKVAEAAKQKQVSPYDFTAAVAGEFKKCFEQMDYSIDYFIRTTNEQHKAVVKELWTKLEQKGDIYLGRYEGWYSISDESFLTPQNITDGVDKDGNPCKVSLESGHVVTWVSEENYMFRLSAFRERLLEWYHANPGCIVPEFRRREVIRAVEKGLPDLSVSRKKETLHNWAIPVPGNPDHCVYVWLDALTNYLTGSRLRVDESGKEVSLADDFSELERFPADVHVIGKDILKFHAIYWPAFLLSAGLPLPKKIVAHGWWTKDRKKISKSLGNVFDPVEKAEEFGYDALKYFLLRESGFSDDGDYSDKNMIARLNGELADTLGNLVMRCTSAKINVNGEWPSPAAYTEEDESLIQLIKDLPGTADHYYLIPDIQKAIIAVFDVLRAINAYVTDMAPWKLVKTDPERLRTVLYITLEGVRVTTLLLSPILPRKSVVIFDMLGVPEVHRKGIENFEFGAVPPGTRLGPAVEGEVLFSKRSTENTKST
T5 sequence (Q9P0U3 whole entry, the tested form may be a part): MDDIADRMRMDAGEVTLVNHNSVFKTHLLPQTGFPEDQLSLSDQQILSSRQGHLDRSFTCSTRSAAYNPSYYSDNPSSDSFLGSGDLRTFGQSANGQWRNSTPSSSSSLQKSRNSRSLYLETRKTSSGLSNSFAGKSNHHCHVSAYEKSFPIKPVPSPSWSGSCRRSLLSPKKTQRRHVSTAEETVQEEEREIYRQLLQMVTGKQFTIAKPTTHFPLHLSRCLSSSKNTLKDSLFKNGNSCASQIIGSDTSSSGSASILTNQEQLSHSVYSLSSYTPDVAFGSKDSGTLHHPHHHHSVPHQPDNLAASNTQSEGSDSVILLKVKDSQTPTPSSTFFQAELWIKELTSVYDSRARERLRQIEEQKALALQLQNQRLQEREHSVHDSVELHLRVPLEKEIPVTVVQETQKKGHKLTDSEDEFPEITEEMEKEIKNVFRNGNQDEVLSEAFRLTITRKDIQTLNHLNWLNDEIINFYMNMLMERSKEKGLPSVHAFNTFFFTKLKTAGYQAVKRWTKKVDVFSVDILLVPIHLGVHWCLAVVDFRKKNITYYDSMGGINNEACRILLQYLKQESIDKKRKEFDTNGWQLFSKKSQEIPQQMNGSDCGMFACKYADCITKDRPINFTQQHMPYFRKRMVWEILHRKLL
T10 sequence (Q79MP6 whole entry): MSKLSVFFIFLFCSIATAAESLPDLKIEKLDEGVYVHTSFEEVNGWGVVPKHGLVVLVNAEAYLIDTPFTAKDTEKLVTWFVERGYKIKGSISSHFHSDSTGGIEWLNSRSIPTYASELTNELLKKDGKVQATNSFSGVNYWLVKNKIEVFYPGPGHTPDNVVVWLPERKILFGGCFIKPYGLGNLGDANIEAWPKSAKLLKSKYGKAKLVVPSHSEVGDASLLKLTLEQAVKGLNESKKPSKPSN
T1 sequence (P07550 whole entry): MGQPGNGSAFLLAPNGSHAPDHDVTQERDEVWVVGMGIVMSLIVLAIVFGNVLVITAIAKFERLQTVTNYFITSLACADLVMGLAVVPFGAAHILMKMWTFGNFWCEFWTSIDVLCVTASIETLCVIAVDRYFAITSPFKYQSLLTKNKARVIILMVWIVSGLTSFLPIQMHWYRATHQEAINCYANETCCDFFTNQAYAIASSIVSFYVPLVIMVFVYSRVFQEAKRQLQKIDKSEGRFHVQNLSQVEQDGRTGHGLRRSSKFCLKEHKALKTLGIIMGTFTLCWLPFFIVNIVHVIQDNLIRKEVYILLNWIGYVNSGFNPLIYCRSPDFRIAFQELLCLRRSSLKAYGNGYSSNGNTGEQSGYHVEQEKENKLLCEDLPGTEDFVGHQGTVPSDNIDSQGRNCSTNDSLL
T3 sequence (Q92731 whole entry): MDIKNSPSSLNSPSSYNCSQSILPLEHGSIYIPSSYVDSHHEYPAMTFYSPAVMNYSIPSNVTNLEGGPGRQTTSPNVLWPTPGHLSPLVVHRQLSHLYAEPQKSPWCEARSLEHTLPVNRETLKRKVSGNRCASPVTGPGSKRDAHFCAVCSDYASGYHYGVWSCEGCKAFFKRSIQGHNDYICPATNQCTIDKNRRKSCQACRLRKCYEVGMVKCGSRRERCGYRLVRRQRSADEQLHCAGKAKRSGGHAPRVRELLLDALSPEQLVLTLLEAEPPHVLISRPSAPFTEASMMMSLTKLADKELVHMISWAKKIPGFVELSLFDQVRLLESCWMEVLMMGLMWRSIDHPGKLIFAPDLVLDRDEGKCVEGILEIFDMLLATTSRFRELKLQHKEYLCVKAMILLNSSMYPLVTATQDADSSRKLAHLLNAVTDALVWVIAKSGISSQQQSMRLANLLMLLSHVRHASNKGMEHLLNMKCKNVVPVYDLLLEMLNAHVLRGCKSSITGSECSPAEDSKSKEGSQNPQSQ
Induced myeloid leukemia cell differentiation protein Mcl-1, sequence (Q07820 whole entry): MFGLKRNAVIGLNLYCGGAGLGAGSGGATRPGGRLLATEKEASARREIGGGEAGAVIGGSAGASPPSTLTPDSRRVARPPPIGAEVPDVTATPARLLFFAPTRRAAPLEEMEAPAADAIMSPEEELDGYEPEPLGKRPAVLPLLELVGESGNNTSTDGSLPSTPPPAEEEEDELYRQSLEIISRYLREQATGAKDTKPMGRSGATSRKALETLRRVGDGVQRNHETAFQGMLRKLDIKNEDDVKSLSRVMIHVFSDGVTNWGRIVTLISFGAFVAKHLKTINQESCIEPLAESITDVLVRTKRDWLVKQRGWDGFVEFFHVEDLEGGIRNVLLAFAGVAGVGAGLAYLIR
Transitional endoplasmic reticulum ATPase (Homo sapiens, UniProt P55072), sequence (P55072 whole entry): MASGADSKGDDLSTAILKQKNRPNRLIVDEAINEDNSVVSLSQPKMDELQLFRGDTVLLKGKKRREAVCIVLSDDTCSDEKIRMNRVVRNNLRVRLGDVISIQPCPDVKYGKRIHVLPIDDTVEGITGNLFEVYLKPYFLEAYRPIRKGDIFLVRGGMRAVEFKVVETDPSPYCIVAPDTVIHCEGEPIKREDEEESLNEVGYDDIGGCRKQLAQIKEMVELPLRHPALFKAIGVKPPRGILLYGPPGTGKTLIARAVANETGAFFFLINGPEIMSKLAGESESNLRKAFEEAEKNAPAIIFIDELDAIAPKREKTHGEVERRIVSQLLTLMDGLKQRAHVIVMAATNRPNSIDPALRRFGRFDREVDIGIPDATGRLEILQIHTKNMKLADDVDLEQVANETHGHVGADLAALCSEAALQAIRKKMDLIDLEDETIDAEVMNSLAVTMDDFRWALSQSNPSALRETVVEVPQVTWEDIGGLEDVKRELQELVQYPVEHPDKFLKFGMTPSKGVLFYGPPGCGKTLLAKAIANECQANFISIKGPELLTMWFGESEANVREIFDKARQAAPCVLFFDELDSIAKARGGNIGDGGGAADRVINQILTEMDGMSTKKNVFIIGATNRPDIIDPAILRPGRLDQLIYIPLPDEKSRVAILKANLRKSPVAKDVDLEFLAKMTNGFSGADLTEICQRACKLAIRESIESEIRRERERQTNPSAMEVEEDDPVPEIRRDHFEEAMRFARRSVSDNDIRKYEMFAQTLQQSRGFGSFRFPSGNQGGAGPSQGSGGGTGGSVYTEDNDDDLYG
Beta-lactamase (Salmonella choleraesuis (strain SC-B67), UniProt Q5J463), sequence (Q5J463 whole entry): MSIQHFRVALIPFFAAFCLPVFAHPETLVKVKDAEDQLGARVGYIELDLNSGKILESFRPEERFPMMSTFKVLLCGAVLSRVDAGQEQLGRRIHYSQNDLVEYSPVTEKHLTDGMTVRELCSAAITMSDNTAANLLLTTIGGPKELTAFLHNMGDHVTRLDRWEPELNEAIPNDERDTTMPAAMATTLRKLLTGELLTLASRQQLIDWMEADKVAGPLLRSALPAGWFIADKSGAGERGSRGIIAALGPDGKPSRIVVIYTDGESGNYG
ADP-ribosylation factor GTPase-activating protein 1, sequence (Q62848 whole entry): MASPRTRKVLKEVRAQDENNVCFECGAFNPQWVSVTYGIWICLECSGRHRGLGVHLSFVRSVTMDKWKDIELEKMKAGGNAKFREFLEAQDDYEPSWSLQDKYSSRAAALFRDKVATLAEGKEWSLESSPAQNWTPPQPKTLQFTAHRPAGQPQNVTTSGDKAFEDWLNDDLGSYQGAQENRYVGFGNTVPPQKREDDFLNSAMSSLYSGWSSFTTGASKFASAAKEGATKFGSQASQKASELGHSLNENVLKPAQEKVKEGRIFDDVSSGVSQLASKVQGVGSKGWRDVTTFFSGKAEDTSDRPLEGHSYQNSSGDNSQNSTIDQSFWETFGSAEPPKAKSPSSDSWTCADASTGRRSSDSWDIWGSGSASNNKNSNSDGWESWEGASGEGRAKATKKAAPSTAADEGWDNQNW

## CCCCC(=O)Nc1ccc(S(=O)(=O)N2CCCCC2c2cccnc2)cc1 (stereo not given)
[1]
  EC50: 0.0322 µM (active)
[2]
  EC50: 0.0798 µM (active)
[3]
  EC50: 23.3 µM (active)

## CC1=C(SCCC#N)S/C(=C2\SC(C)=C(SCCC#N)S2)S1
Estrogen receptor
  IC50: 5.1 µM (active)
Estrogen receptor beta [4]
  IC50: > 50 µM (not active)
Estrogen receptor beta [5]
  IC50: 0.129 µM (not active)
[6]
  IC50: 2.89 µM (active)
[7]
  IC50: 0.299 µM (active)

## Oc1ccc(Cl)cc1/C=C(\Cl)c1nc(O)c2ccc(Cl)cc2n1
[8]
  IC50: > 50 µM (not active)
[9]
  IC50: > 50 µM (not active)
[10]
  AC50: 1.32 µM (active)
[11]
  IC50: 0.654 µM (active)
[12]
  IC50: 0.428 µM (active)

## CCOC(=O)CSC1=C(C#N)C(c2ccc(Cl)cc2)C(C(=O)OC)C(=O)N1 (stereo not given)
[13]
  IC50: 26.5 µM (active)
[14]
  EC50: > 53 µM (inactive)
[15]
  IC50: 9.62 µM (active)

## O=C(CSc1nc2ccccc2c(=O)n1NC(=O)c1ccccc1)c1ccc(Cl)cc1
[16]
  EC50: 7.26 µM (active)
Streptokinase A
  EC50: 106 µM (active)
Streptococcus
  EC50: > 150 µM (not active)
Cytochrome P450 2C19
  AC50: 2.24 µM (inconclusive)
[17]
  IC50: 1.53 µM (active)
Cytochrome P450 1A2
  AC50: 6.31 µM (inconclusive)
Cytochrome P450 2C9
  AC50: 1 µM (inconclusive)

## O=C(NN1C(=O)/C(=C/c2nc3ccccc3[nH]2)SC1=S)c1ccc(Cl)cc1
[18]
  IC50: 119 µM (inactive)
[19]
  IC50: 83.3 µM (inactive)
[20]
  IC50: 82.6 µM (inactive)
[21]
  AC50: 1.13 µM (active)

## Sc1nnc(-c2ccco2)n1-c1cccc2ccccc12
Beta-lactamase [22]
  IC50: > 59.6 µM (inactive)
Beta-lactamase [23]
  IC50: > 59.6 µM (inactive)
Beta-lactamase [24]
  IC50: > 59.6 µM (inactive)

## CCOC(=O)N1CCN(C(=O)CSc2nc(=O)n3cc(C)ccc3n2)CC1
[25]
  IC50: 53.2 µM (inactive)

## CN1C[C@@H]2[C@@H]3C(=O)N(Cc4ccccc4)C(=O)[C@@H]3[C@](C)(C1=O)N2C(=O)c1ccc(C(C)(C)C)cc1
Vero
  AC50: 24.6 µM (active)

## Cc1cc(/C=N/n2cnnc2)c(C)n1-c1ccc(OCc2ccccc2F)cc1
INS1
  AC50: 3.41 µM (active)
Protein Wnt-3a
  IC50: 6.57 µM (active)
Cytochrome P450 2D6
  AC50: 17.8 µM (inconclusive)

From ChEMBL document CHEMBL1201862, “PubChem BioAssay data set” (2004)
